Measured values published in patent publication US20180271470A1, “METHODS FOR QUANTIFYING PANCREATIC BETA CELL FUNCTION AND MASS PROPERTIES WITH RADIOMANGANESE POSITRON EMISSION TOMOGRAPHY” (Wisconsin Alumni Research Foundation, priority 2017, published 2018).

Experiments:
[1] = test system: ^52Mn^2+ pancreatic uptake; experiment: Pharmacological manipulation of ^52Mn^2+ pancreatic uptake in vivo (PET and biodistribution); set-up: species or system ICR mice
Protocol: To investigate the specificity of ^52Mn^2+ for beta cells, a series of studies were performed where ^52Mn^2+ uptake was manipulated through the pharmacologic stimulation or inhibition of the insulin secretory pathway. In these experiments, 0.74-1.85 MBq (20-50 μCi) of ^52Mn^2+ was administered IV into either female ICR or C57BL/6J mice and static PET scans were acquired at one hour post injection. During tracer administration, mice were awake. Mice were only anaesthetized by isoflurane (1%) immediately before PET imaging.
To corroborate the correlation between ^52Mn^2+ pancreatic uptake and the mechanism of insulin release in beta cells, the insulin secretory pathways were stimulated in vivo using glucose and glibendamide (Tocris Biosciences, Bristol, UK), which promotes insulin release in beta cells via blockade of ATP-sensitive potassium channel (KATP). Mice were injected intraperitoneally (IP) with 100 μL of glucose (1 g/kg) or glucose (1 g/kg)+glibenclamide (5 mg/kg) in PBS, 15 min before the IV injection of 0.74-1.85 MBq (20-50 μCi)^52Mn^2+. Static PET scans were acquired one hour after the injection of the radiotracer, after which ex vivo biodistribution was performed.
Whole-body PET scans were acquired at one hour post injection, after which ex vivo biodistribution was performed.

[2] = test system: isolated ob/ob mouse islets; experiment: Uptake of ^52Mn^2+ in isolated islets under stimulatory or inhibitory conditions; format: cell-based; details: 15 min incubation
Protocol: Mouse pancreatic islets were isolated by collagenase digestion. Briefly, mice were placed under shallow anesthesia and sacrificed via cervical dislocation. The mouse common bile duct was cannulized and 3-5 mL of an ice-cold solution containing type XI collagenase (0.5 mg/mL; Sigma Aldrich, St. Louis, Mo.) and bovine serum albumin (BSA; 0.2 mg/mL; Sigma Aldrich, St. Louis, Mo.) in Hank's balanced salt solution (HBSS; Invitrogen, Carlsbad, Calif.) was injected into the mouse pancreas. After inflation, the pancreas was removed, placed in a glass vial containing 5 mL of the collagenase solution, and incubated in a shaking water bath at 37° C. Samples were digested for approximately 30 min after which the digests were centrifuged at 50×g for 2 min and islet pellets were washed three times with 30 mL of an ice-cold BSA (0.2 mg/mL) in HBSS solution. The pellet was resuspended and islets handpicked into 35 mm petri dishes. Following isolation, islets were placed in RPMI1640 media supplemented with penicillin (100 U/mL; Invitrogen), streptomycin (100 μg/mL; Invitrogen), and FBS [10% (wt/vol); Sigma] and incubated overnight at 37° C. in a 5% CO2 atmosphere.
The uptake of ^52Mn^2+ by murine islets of Langerhans was determined under several stimulatory or inhibitory conditions. Batches of 50 islets were transferred into 0.45 μm filtered bottom 1 mL centrifuge vials (Thermo Fisher Scientific, Grand Island, N.Y.), 500 μL of Krebs-Ringer buffer (KRB: 118 mM NaCl, 5.4 mM KCl, 2.4 mM CaCl, 1.2 mM MgSO4, 1 mM […], 20 mM HEPES; pH 7.4) containing a low glucose concentration (1 mM D-glucose) were added and the islets incubated for 30 min at 37° C. After removing the supernatant following centrifugation at 50×g for 5 min, 250 μL of KRB containing glucose, diazoxide (50 μM; Tocris Biosciences, Bristol, UK), or tolbutamide (250 μM; Selleckchem, Houston, Tex.) were added, and the vials were spiked with 370 kBq (10 μCi) of ^52Mn^2+. After 15 min of incubation, the solutions were filtered and islets were washed three times with KRB. The ^52Mn^2+ radioactivity in the islet pellets were measured in an automated gamma counter (Perkin Elmer).

[3] = test system: pancreatic uptake of ^52Mn^2+; experiment: One hour biodistribution of ^52Mn^2+ in anesthetized (1% isoflurane) or awake mice; format: in vivo; details: 1% isoflurane vs awake, 1 h post injection, regardless of administration regime or glucose stimulation
Protocol: Previous reports have shown that most volatile anesthetics, including isoflurane, impair insulin secretion by inhibiting the deactivation of KATP channels. Plausibly, the observed decrease in pancreatic uptake of ^52Mn^2+ resulted from mice being anesthetized through the full extent of the studies during the dynamic PET scans. To investigate the impact of isoflurane anesthesia on pancreatic uptake, one hour post injection biodistribution experiments were performed under different administration conditions in either anesthetized (1% isoflurane) or awake mice.

[4] = OLINDA dosimetry calculations for Mn-51 and daughter Cr-51; set-up: species or system human; details: OLINDA input
Protocol: Due to the rapid blood clearance of Mn^2+, OLINDA (Organ Level INternal Dose Assessment) dosimetry calculations were performed assuming instant compartment localization with organ activity fractions equal to those measured by ex vivo biodistribution herein. Based on the previously measured lengthy organ residence times of Mn^2+, it was also assumed that the effective organ clearance half-life (Ter) was equal to the radioactive half-life of Mn-51 (t1/2: 45.6 min). It was also assumed that Mn-51 injections were 100% radionuclidically pure. In regards to the daughter isotope, Cr-51 (t1/2: 27.7 d), it was assumed that the activity remained in same organ compartments as the parent Mn-51 biodistribution without biological clearance. Standard radiation weighting factors were used (γ=1, β=1). Based on these assumptions, effective dose (ED) and effective dose equivalent (EDE) (units of mSv/MBq) were calculated for a standard adult male and female.

[5] = ^52Mn^2+ PET and biodistribution in STZ type-1 diabetes model; format: in vivo, ICR mice; details: ICR female mice, single STZ 180 mg/kg IP, four days after induction
Protocol: Type 1 diabetes was induced in female ICR mice via a single IP injection of 180 mg/kg streptozotocin (STZ; MP Biomedical, LLC, Santa Ana, Calif.), a toxin that selectively destroys pancreatic beta cell. The injectable STZ solution (12.5 mg/mL) was prepared freshly in phosphate buffered saline (PBS). The weight of each mouse was measured daily, and blood glucose levels were recorded every other day with a glucometer (TRUEresult, Trividia Health Inc., Fort Lauderdale, Fla.) using blood samples collected from the tail vein. Mice were considered diabetic after two consecutive blood glucose readings above 250 mg/dL and were used for PET imaging studies one week after the injection of STZ. To evaluate ^52Mn^2+ pancreatic uptake on diabetic mice, 0.74 MBq (20 μCi) of activity were administered IV and static PET images recorded one hour after administration of the tracer. Ex vivo biodistribution was carried out following PET acquisition.

With `CC1=NS(=O)(=O)c2cc(Cl)ccc2N1` [diazoxide, 7-Chloro-3-methyl-4H-1,2,4-benzothiadiazine 1,1-dioxide] the “decline in ^52Mn^2+ pancreatic uptake vs control” value ([1]; 20 mg/kg IP 10-15 min before IV ^52Mn^2+ bolus, PET 1 h post injection) was 44%, the “pancreatic ^52Mn^2+ uptake after drug (PET quantification)” value ([1]; 20 mg/kg IP 10-15 min before IV ^52Mn^2+ bolus, PET 1 h post injection, control 5.13±0.36 SUV) was 2.85±0.92 SUV and the “effect on PET signal within the pancreas” value ([1]; 20 mg/kg IP before ^52Mn^2+ bolus) was “significant (P<0.0001) abrogation”. The “effect on glucose-stimulated ^52Mn^2+ uptake by islets” value ([2]; diazoxide 50 μM added to 10 mM glucose) was “blocked”.
For `FC(F)OC(Cl)C(F)(F)F` (centres unmarked) [Isoflurane], the “effect on accumulation of ^52Mn^2+ in the pancreas” value [3] was “significantly inhibited”.
For `COc1ccc(Cl)cc1C(=O)NCCc1ccc(S(=O)(=O)NC(=O)NC2CCCCC2)cc1` [glibenclamide], the “effect on pancreatic SUV values” ([1]; glibenclamide 5 mg/kg IP (with glucose 1 g/kg) 15 min before ^52Mn^2+, 1 h post injection) was “significant enhancement”.
With `CCCCNC(=O)NS(=O)(=O)c1ccc(C)cc1` [tolbutamide] the “effect on ^52Mn^2+ retention by islets” value ([2]; glucose and tolbutamide 250 μM) was “significantly higher”.
For `OC[C@H]1OC(O)[C@H](O)[C@@H](O)[C@@H]1O` (some centres unmarked) [glucose], the “effect on ^52Mn^2+ uptake by islets” value ([2]; 10 mM glucose vs 1 mM glucose) was “significantly enhanced”.
In the case of `[51Cr]` [Cr-51], the “Number of disintigrations, Total Body” value ([4]; Total Body) is reported as 7.20E+02 MBq-h/MBq, the “Number of disintigrations, Adrenals” value ([4]; source organ Adrenals) is reported as 0.00E+00 MBq-h/MBq and the “Number of disintigrations, Brain” value ([4]; source organ Brain) is reported as 3.93E+00 MBq-h/MBq. For the same molecule, the “Number of disintigrations, Breasts” value ([4]; source organ Breasts) was 0.00E+00 MBq-h/MBq, the “Number of disintigrations, Cortical Bone” value ([4]; source organ Cortical Bone) was 7.48E−01 MBq-h/MBq and the “Number of disintigrations, Gallbladder Contents” value ([4]; source organ Gallbladder Contents) was 0.00E+00 MBq-h/MBq. The “Number of disintigrations, Heart Contents” value ([4]; source organ Heart Contents) was 0.00E+00 MBq-h/MBq, the “Number of disintigrations, Heart Wall” value ([4]; source organ Heart Wall) was 2.10E+01 MBq-h/MBq and the “Number of disintigrations, Kidneys” value ([4]; source organ Kidneys) was 6.12E+01 MBq-h/MBq. The “Number of disintigrations, LLI” value ([4]; source organ LLI) was 0.00E+00 MBq-h/MBq, the “Number of disintigrations, Liver” value ([4]; source organ Liver) was 5.58E+01 MBq-h/MBq and the “Number of disintigrations, Lungs” value ([4]; source organ Lungs) was 1.49E+01 MBq-h/MBq. The “Number of disintigrations, Muscle” value ([4]; source organ Muscle) was 1.93E+00 MBq-h/MBq, the “Number of disintigrations, Ovaries” value ([4]; source organ Ovaries) was 0.00E+00 MBq-h/MBq and the “Number of disintigrations, Pancreas” value ([4]; source organ Pancreas) was 3.64E+01 MBq-h/MBq. For the same molecule, the “Number of disintigrations, Red Marrow” value ([4]; source organ Red Marrow) was 0.00E+00 MBq-h/MBq, the “Number of disintigrations, Small Intestine” value ([4]; source organ Small Intestine) was 0.00E+00 MBq-h/MBq and the “Number of disintigrations, Spleen” value ([4]; source organ Spleen) was 8.12E+00 MBq-h/MBq. The “Number of disintigrations, Stomach” value ([4]; source organ Stomach) was 1.23E+01 MBq-h/MBq, the “Number of disintigrations, Testes” value ([4]; source organ Testes) was 0.00E+00 MBq-h/MBq and the “Number of disintigrations, Thymus” value ([4]; source organ Thymus) was 0.00E+00 MBq-h/MBq. For the same molecule, the “Number of disintigrations, Thyroid” value ([4]; source organ Thyroid) was 0.00E+00 MBq-h/MBq, the “Number of disintigrations, Trabecular Bone” value ([4]; source organ Trabecular Bone) was 0.00E+00 MBq-h/MBq and the “Number of disintigrations, ULI” value ([4]; source organ ULI) was 5.70E+00 MBq-h/MBq. The “Number of disintigrations, Urinary Bladder Contents” value ([4]; source organ Urinary Bladder Contents) was 0.00E+00 MBq-h/MBq and the “Number of disintigrations, Uterus/Uterine Wall” value ([4]; source organ Uterus/Uterine Wall) was 0.00E+00 MBq-h/MBq.
In the case of `CN(N=O)C(=O)N[C@@H]1[C@@H](O)[C@H](O)[C@@H](CO)O[C@@H]1O` [STZ, reference compound], the “blood glucose after induction” value [5] is reported as greater than 250 mg/dL.
